Experimental data as given in PMC6193938, “Characterization of a novel AICARFT inhibitor which potently elevates ZMP and has anti-tumor activity in murine models” (Scientific Reports, 2018).
Read-outs that look alike come from different tables or passages of the source.

System: panel of human cell lines
Assay: In vitro proliferation assay, Cell Titer Glo, two doubling times, 298 cell lines
Assay type: cell-based
Conditions: read-out: ABS_IC50_VALUE
Excerpt: Cell Titer Glo measures ATP, thus the IC50s represent both the effect on purine production and cell proliferation, which are related. […] Folates are actively taken up in cells by reduced folate carrier (SLC19A1), proton-coupled folate transporter (SLC46A1), and the FOLR1 folate receptor[17]. Once inside the cell, folates are trapped by polyglutamation catalyzed by folylpolyglutamate synthetase (FPGS). […] Gene expression data for ATIC, GART, APRT, HPRT, FOLR1, SLC19A1, SLC46A1 & FPGS are shown in Fig. 2, since these genes were anticipated to predict sensitivity. […] The MDA-MB-231 cell line is reduced folate carrier (SLC19A1) negative due to epigenetic silencing.
Cells were cultured using recommended culture conditions unless noted otherwise (Supplemental Table 3). Cells were plated, dosed with compound and incubated at 37 °C for approximately 2 doubling times as determined for each cell line. Cell Titer Glo (Promega) assay was used to measure proliferation according to manufacturer’s recommendations by measuring luminescence with Flexstation3 (Molecular Devices) with 500 ms integration time. […] The % response was fit to a four-parameter logistic equation using ACTIVITYBASE 4.0 to determine the absolute IC50 values.
Cell Lines: Cell lines of adrenal gland, autonomic ganglia, biliary tract, blood ALL, blood AML, blood CML, blood hodgkin lymphoma, blood lymphoma, blood multiple myeloma, blood NHL, blood RAEB, bone, breast ER+, breast fibroblast, breast fibroblast mixed, breast HER2, breast normal, breast triple negative, cervix, CNS, endometrium, eye, fibroblast normal, kidney ns, kidney renal, large intestine, liver, liver normal, lung adenocarcinoma, lung ns, lung NSCLC, lung NSCLC mixed, lung SCLC, lung squamous, melanoma, melanoma normal, esophagus adenocarcinoma, esophagus ns, esophagus squamous, ovary, pancreas adenocarcinoma, pancreas ductal carcinoma, pancreas ns, pleura mesothelioma, prostate adenocarcinoma, prostate small cell, salivary gland, small intestine, soft tissue, stomach, testis, thyroid, thyroid squamous, umbilical vein endothelial cell normal, upper aerodigestive tract squamous, urinary tract ns, urinary tract transitional cell carcinoma, and vulva squamous origin were obtained from ATCC, CASTCC, CLS, DSMZ, ECACC, HSRRB, ICLC, JCRB, NCI, Riken and SNU cell banks. The murine A9 cell line was acquired from the ATCC (CCL-1.4).

What does the source list for `O=c1[nH]ccc2cc(F)c(NS(=O)(=O)c3ccc(N4CC[C@@H](O)C4)s3)cc12` [LSN3213128, N-(6-Fluoro-1-oxo-1,2-dihydroisoquinolin-7-yl)-5-[(3R)-3-hydroxypyrrolidin-1-yl]thiophene-2-sulfonamide]?
IC50 (Homo sapiens, 22Rv1, 22RV1, prostate): 13.7 µM; IC50 (Homo sapiens, 769-P, kidney): 1.21 µM; IC50 (Homo sapiens, 5637, urinary tract): 2.88 µM; IC50 (Homo sapiens, 8505C, thyroid): > 20 µM; IC50 (Homo sapiens, A101D, skin): 2.22 µM; IC50 (Homo sapiens, A204, A204, soft tissue): > 20 µM; IC50 (Homo sapiens, A253, A253, salivary gland): > 20 µM; IC50 (Homo sapiens, A498, A498, kidney): 12.2 µM; IC50 (Homo sapiens, A549, A549, lung): > 20 µM; IC50 (Homo sapiens, A2058, A2058, skin): > 20 µM; IC50 (Homo sapiens, A2780, A2780, ovary): 3.23 µM; IC50 (Homo sapiens, ACHN, kidney): 1.94 µM; IC50 (Homo sapiens, AGS, stomach): > 20 µM; IC50 (Homo sapiens, ASPC1, AsPC-1, pancreas): > 20 µM; IC50 (Homo sapiens, AU565, AU565, breast): 0.58 µM; IC50 (Homo sapiens, BCP-1, BCP-1, haematopoietic and lymphoid tissue): 11.1 µM; IC50 (Homo sapiens, BT-20, BT-20, breast): > 20 µM; IC50 (Homo sapiens, BT-474, BT-474, breast): > 20 µM; IC50 (Homo sapiens, BT-483, BT-483, breast): > 20 µM; IC50 (Homo sapiens, BT-549, BT-549, breast): > 20 µM; IC50 (Homo sapiens, BXPC-3, BxPC-3, pancreas): 4.49 µM; IC50 (Homo sapiens, C2BBe1, C2BBe1, large intestine): > 20 µM; IC50 (Homo sapiens, C3A, liver): 25.2 µM; IC50 (Homo sapiens, C32, skin): > 20 µM; IC50 (Homo sapiens, CA46, CA46, haematopoietic and lymphoid tissue): > 20 µM; IC50 (Homo sapiens, CAKI-1, Caki-1, kidney): > 20 µM; IC50 (Homo sapiens, CAKI-2, Caki-2, kidney): 5.03 µM; IC50 (Homo sapiens, CAMA-1, CAMA-1, breast): > 20 µM; IC50 (Homo sapiens, CAPAN-1, CAPAN-1, pancreas): > 20 µM; IC50 (Homo sapiens, CCF-STTG1, CCF-STTG1, central nervous system): > 20 µM; IC50 (Homo sapiens, CFPAC-1, CFPAC-1, pancreas): > 20 µM; IC50 (Homo sapiens, CHL-1, CHL-1, skin): > 20 µM; IC50 (Homo sapiens, CHP-212, CHP-212, autonomic ganglia): > 20 µM; IC50 (Homo sapiens, COLO 205, COLO-205, large intestine): 1.68 µM; IC50 (Homo sapiens, COLO-320-HSR, large intestine): 3.3 µM; IC50 (Homo sapiens, COLO-680N, oesophagus): 2.05 µM; IC50 (Homo sapiens, COLO-741, COLO-741, large intestine): 1.58 µM; IC50 (Homo sapiens, COR-L23, COR-L23, lung): 1.4 µM; IC50 (Homo sapiens, Calu-1, Calu-1, lung): > 20 µM; IC50 (Homo sapiens, Calu-3, Calu-3, lung): 2.27 µM; IC50 (Homo sapiens, Calu-6, Calu-6, lung): 11.9 µM; IC50 (Homo sapiens, Capan-2, Capan-2, pancreas): 15.3 µM; IC50 (Homo sapiens, ChaGo-K-1, ChaGo-K-1, lung): > 20 µM; IC50 (Homo sapiens, D341 Med, central nervous system): > 20 µM; IC50 (Homo sapiens, DB, haematopoietic and lymphoid tissue): 10.8 µM; IC50 (Homo sapiens, DMS-53, DMS-53, lung): > 20 µM; IC50 (Homo sapiens, Daoy, central nervous system): 1.02 µM; IC50 (Homo sapiens, Daudi, haematopoietic and lymphoid tissue): 1.1 µM; IC50 (Homo sapiens, EB1, haematopoietic and lymphoid tissue): 1.28 µM; IC50 (Homo sapiens, EB2, haematopoietic and lymphoid tissue): > 20 µM; IC50 (Homo sapiens, ES-2, ovary): > 20 µM; IC50 (Homo sapiens, F-36P, haematopoietic and lymphoid tissue): 0.79 µM; IC50 (Homo sapiens, G-361, G-361, skin): > 20 µM; IC50 (Homo sapiens, G-401, G-401, kidney): > 20 µM; IC50 (Homo sapiens, G-402, G-402, soft tissue): > 20 µM; IC50 (Homo sapiens, GCT, soft tissue): > 20 µM; IC50 (Homo sapiens, GI-1, central nervous system): 15.5 µM; IC50 (Homo sapiens, GP2d, large intestine): 14.3 µM; IC50 (Homo sapiens, HCC38, HCC38, breast): > 20 µM; IC50 (Homo sapiens, HCC70, HCC70, breast): > 20 µM; IC50 (Homo sapiens, HCC202, HCC202, breast): > 20 µM; IC50 (Homo sapiens, HCC827, HCC827, lung): 16 µM; IC50 (Homo sapiens, HCC1143, HCC1143, breast): > 20 µM; IC50 (Homo sapiens, HCC1187, HCC1187, breast): > 20 µM; IC50 (Homo sapiens, HCC1395, HCC1395, breast): > 20 µM; IC50 (Homo sapiens, HCC1419, HCC1419, breast): 10.4 µM; IC50 (Homo sapiens, HCC1599, HCC1599, breast): 3.65 µM; IC50 (Homo sapiens, HCC1806, HCC1806, breast): > 20 µM; IC50 (Homo sapiens, HCC1937, HCC1937, breast): 18.5 µM; IC50 (Homo sapiens, HCC1954, HCC1954, breast): 0.09 µM; IC50 (Homo sapiens, HCC2218, HCC2218, breast): > 20 µM; IC50 (Homo sapiens, HCT-15, HCT-15, large intestine): 3.51 µM; IC50 (Homo sapiens, HEC-1-A, endometrium): 13.6 µM; IC50 (Homo sapiens, HGC-27, HGC-27, stomach): > 20 µM; IC50 (Homo sapiens, HL-60, HL-60, haematopoietic and lymphoid tissue): > 20 µM; IC50 (Homo sapiens, HLE, liver): 15 µM; IC50 (Homo sapiens, HLF, liver): 9.35 µM; IC50 (Homo sapiens, HMCB, skin): 4.45 µM; IC50 (Homo sapiens, HPAF-II, pancreas): 11.1 µM; IC50 (Homo sapiens, HSC-2, HSC-2, upper aerodigestive tract): 1.28 µM; IC50 (Homo sapiens, HSC-3, HSC-3, upper aerodigestive tract): 7.22 µM; IC50 (Homo sapiens, HSC-4, HSC-4, upper aerodigestive tract): 2.95 µM; IC50 (Homo sapiens, HT1197, HT-1197, urinary tract): 0.37 µM; IC50 (Homo sapiens, HT-29, HT-29, large intestine): > 20 µM; IC50 (Homo sapiens, HT-144, HT-144, skin): > 20 µM; IC50 (Homo sapiens, HT-1080, HT-1080, soft tissue): 4 µM; IC50 (Homo sapiens, HT-1376, HT-1376, urinary tract): 0.49 µM; IC50 (Homo sapiens, Hs 294T, skin): > 20 µM; IC50 (Homo sapiens, Hs 606.T, breast): > 20 µM; IC50 (Homo sapiens, Hs 688(A).T, skin): > 20 µM; IC50 (Homo sapiens, Hs 695T, skin): > 20 µM; IC50 (Homo sapiens, Hs 739.T, breast): > 20 µM; IC50 (Homo sapiens, Hs 839.T, skin): > 20 µM; IC50 (Homo sapiens, Hs 940.T, skin): > 20 µM; IC50 (Homo sapiens, HuCCT-1, HuCCT1, biliary tract): 17.1 µM; IC50 (Homo sapiens, HuG1-N, stomach): 2.53 µM; IC50 (Homo sapiens, HuTu80, HUTU-80, small intestine): 0.83 µM; IC50 (Homo sapiens, Huh-7, HuH-7, liver): 12.5 µM; IC50 (Homo sapiens, IA-LM, lung): > 20 µM; IC50 (Homo sapiens, J82, urinary tract): > 20 µM; IC50 (Homo sapiens, JHH7, JHH-7, liver): 28.3 µM; IC50 (Homo sapiens, K562, K-562, haematopoietic and lymphoid tissue): 0.67 µM; IC50 (Homo sapiens, KALS-1, KALS-1, central nervous system): > 20 µM; IC50 (Homo sapiens, KE-97, KE-97, stomach): 1.09 µM; IC50 (Homo sapiens, KG-1, haematopoietic and lymphoid tissue): > 20 µM; IC50 (Homo sapiens, KLE, endometrium): > 20 µM; IC50 (Homo sapiens, KM12, KM12, large intestine): 2.05 µM; IC50 (Homo sapiens, KNS-42, KNS-42, central nervous system): > 20 µM; IC50 (Homo sapiens, KNS-62, KNS-62, lung): 16 µM; IC50 (Homo sapiens, KNS-81, central nervous system): > 20 µM; IC50 (Homo sapiens, KP-4, pancreas): 0.74 µM; IC50 (Homo sapiens, KU812, KU812, haematopoietic and lymphoid tissue): 0.08 µM; IC50 (Homo sapiens, KYSE-410, KYSE-410, oesophagus): 1.56 µM; IC50 (Homo sapiens, Kasumi-6, haematopoietic and lymphoid tissue): > 20 µM; IC50 (Homo sapiens, LOUCY, haematopoietic and lymphoid tissue): 1.76 µM; IC50 (Homo sapiens, LUDLU-1, LUDLU-1, lung): > 20 µM; IC50 (Homo sapiens, MCF7, MCF7, breast): 11.1 µM; IC50 (Homo sapiens, MDA-MB-157, MDA-MB-157, breast): > 20 µM; IC50 (Homo sapiens, MDA-MB-415, MDA-MB-415, breast): > 20 µM; IC50 (Homo sapiens, MDA-MB-436, MDA-MB-436, breast): > 20 µM; IC50 (Homo sapiens, MDA-MB-453, MDA-MB-453, breast): > 20 µM; IC50 (Homo sapiens, MDA-MB-468, MDA-MB-468, breast): 0.44 µM; IC50 (Homo sapiens, MEG-01, MEG-01, haematopoietic and lymphoid tissue): 0.29 µM; IC50 (Homo sapiens, MG-63, MG-63, bone): > 20 µM; IC50 (Homo sapiens, MKN-1, MKN1, stomach): > 20 µM; IC50 (Homo sapiens, MKN-45, MKN45, stomach): > 20 µM; IC50 (Homo sapiens, MKN-74, MKN74, stomach): > 20 µM; IC50 (Homo sapiens, MOLT-4, MOLT-4, haematopoietic and lymphoid tissue): 1.11 µM; IC50 (Homo sapiens, MSTO-211H, pleura): > 20 µM; IC50 (Homo sapiens, Malme-3M, skin): > 20 µM; IC50 (Homo sapiens, NCI-H23, NCI-H23, lung): 14.4 µM; IC50 (Homo sapiens, NCI-H28, NCI-H28, pleura): > 20 µM; IC50 (Homo sapiens, NCI-H69, NCI-H69, lung): 18.5 µM; IC50 (Homo sapiens, NCI-H82, NCI-H82, lung): 2.28 µM; IC50 (Homo sapiens, NCI-H209, NCI-H209, lung): 5.55 µM; IC50 (Homo sapiens, NCI-H226, NCI-H226, lung): 4.52 µM; IC50 (Homo sapiens, NCI-H358, NCI-H358, lung): 6.06 µM; IC50 (Homo sapiens, NCI-H441, NCI-H441, lung): > 20 µM; IC50 (Homo sapiens, NCI-H446, NCI-H446, lung): 1.68 µM; IC50 (Homo sapiens, NCI-H460, NCI-H460, lung): 0.97 µM; IC50 (Homo sapiens, NCI-H508, NCI-H508, large intestine): 13.1 µM; IC50 (Homo sapiens, NCI-H520, NCI-H520, lung): 9.66 µM; IC50 (Homo sapiens, NCI-H522, NCI-H522, lung): 9.92 µM; IC50 (Homo sapiens, NCI-H524, NCI-H524, lung): 11.3 µM; IC50 (Homo sapiens, NCI-H596, NCI-H596, lung): > 20 µM; IC50 (Homo sapiens, NCI-H647, NCI-H647, lung): 1.4 µM; IC50 (Homo sapiens, NCI-H650, NCI-H650, lung): 8.6 µM; IC50 (Homo sapiens, NCI-H660, NCI-H660, prostate): 7.16 µM
